The values below come from patent US10246429B2, “Vinyl fluoride cyclopropyl fused thiazin-2-amine compounds as beta-secretase inhibitors and methods of use” (AMGEN INC., priority 2015, dated 2019).

One experiment concerns the target Cathepsin D (CatD) (Homo sapiens (Human), UniProt P07339). Nature of the experiment: CatD assay. Particulars: read-out: IC50 IP (μM) CatD. The class given is biochemical.
In the next experiment the target is BACE2 (Homo sapiens (Human), UniProt Q9Y5Z0). Description: In vitro enzymatic BACE2 FRET assay. The class given is biochemical. Particulars: read-out: IC50 IP (μM) BACE2 Enzyme.
Sequence of BACE2 (Q9Y5Z0 63-518): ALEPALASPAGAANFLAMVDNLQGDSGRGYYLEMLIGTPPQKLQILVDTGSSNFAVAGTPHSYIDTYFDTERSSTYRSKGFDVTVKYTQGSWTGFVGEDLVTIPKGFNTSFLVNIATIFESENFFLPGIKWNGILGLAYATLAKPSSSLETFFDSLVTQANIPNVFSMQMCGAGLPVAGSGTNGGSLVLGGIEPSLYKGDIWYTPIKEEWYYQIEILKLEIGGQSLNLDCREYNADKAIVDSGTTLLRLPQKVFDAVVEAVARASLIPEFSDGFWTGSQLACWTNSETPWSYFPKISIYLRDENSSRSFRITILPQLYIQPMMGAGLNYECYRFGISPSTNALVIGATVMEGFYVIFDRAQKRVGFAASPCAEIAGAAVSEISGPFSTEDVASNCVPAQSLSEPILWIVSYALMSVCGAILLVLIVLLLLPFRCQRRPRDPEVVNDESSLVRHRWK

Sequence of Cathepsin D (CatD) (P07339 65-412, species assumed): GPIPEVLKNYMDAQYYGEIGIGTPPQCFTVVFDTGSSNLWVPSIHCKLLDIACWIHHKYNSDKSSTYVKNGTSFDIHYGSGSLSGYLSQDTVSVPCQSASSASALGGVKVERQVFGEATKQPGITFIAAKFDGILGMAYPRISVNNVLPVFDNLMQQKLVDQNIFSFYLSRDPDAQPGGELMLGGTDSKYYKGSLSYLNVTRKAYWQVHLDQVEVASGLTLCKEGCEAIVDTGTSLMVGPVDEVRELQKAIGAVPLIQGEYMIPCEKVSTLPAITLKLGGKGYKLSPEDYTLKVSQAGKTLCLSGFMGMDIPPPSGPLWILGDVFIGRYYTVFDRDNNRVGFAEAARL
From the text for BACE2: In Vitro Enzymatic BACE1 and BACE2 FRET (Fluorescence Resonance Energy Transfer) Assays (Enzyme Assay Data in Table 1)

In general, IC50 refers to the concentration needed to halve the response being measured. Turning to `C[C@@]1(O)CCN(C(=O)[C@]23C[C@H]2[C@@](C)(c2cc(/C=C(\F)c4ccc(C#N)cn4)ccc2F)N=C(N)S3)C1` (single isomer, unassigned) [Example 310], the results for the concentration for half-maximal inhibition (IC50) on Cathepsin D (CatD) and on BACE2 were 434 µM and 0.041 µM, respectively.

Consider `COC(=O)[C@]12C[C@H]1[C@@](C)(c1cc(/C=C(\F)c3ccc(Br)cn3)ccc1F)N=C(N)S2` [Example 105, (1S,5S,6S)-methyl 3-amino-5-(5-((Z)-2-(5-bromopyridin-2-yl)-2-fluorovinyl)-2-fluorophenyl)-5-methyl-2-thia-4-azabicyclo[4.1.0]hept-3-ene-1-carboxylate], for which the IC50 on Cathepsin D (CatD) was 302 µM; at BACE2, 0.127 µM.

For the compound `COC(=O)[C@]12C[C@H]1[C@@](C)(c1cc(/C=C(\F)c3ccc(Cl)cn3)ccc1F)N=C(N)S2` [Example 111, (1S,5S,6S)-methyl 3-amino-5-(5-((Z)-2-(5-chloropyridin-2-yl)-2-fluorovinyl)-2-fluorophenyl)-5-methyl-2-thia-4-azabicyclo[4.1.0]hept-3-ene-1-carboxylate], the IC50 on Cathepsin D (CatD) came out at 734 µM; on BACE2, 0.102 µM.

For `C[C@]1(c2cc(/C=C(\F)c3ccc(Cl)cn3)ccc2F)N=C(N)S[C@@]2(C(=O)N3CCC3)C[C@H]21` [Example 112, ((1S,5S,6S)-3-amino-5-(5-((Z)-2-(5-chloropyridin-2-yl)-2-fluorovinyl)-2-fluorophenyl)-5-methyl-2-thia-4-azabicyclo[4.1.0]hept-3-en-1-yl)(azetidin-1-yl)methanone], at Cathepsin D (CatD), the IC50 was found to be 97.6 µM.

For `C[C@]1(c2cc(/C=C(\F)c3ccc(Cl)cn3)ccc2F)N=C(N)S[C@@]2(CO)C[C@H]21` [Example 113, ((1S,5S,6S)-3-amino-5-(5-((Z)-2-(5-chloropyridin-2-yl)-2-fluorovinyl)-2-fluorophenyl)-5-methyl-2-thia-4-azabicyclo[4.1.0]hept-3-en-1-yl)methanol], the IC50 on Cathepsin D (CatD) amounted to 400 µM; at BACE2 it was 0.0339 µM.

For `CC(O)CCNC(=O)[C@]12C[C@H]1[C@@](C)(c1cc(/C=C(\F)c3ccc(Cl)cn3)ccc1F)N=C(N)S2` (stereo partly drawn) [Example 115, (1S,5S,6S)-3-amino-5-(5-((Z)-2-(5-chloropyridin-2-yl)-2-fluorovinyl)-2-fluorophenyl)-N-(3-hydroxybutyl)-5-methyl-2-thia-4-azabicyclo[4.1.0]hept-3-ene-1-carboxamide], at Cathepsin D (CatD), the IC50 is 57.6 µM.

On to `COC[C@@H]1CCCN1C(=O)[C@]12C[C@H]1[C@@](C)(c1cc(/C=C(\F)c3ccc(Cl)cn3)ccc1F)N=C(N)S2` [Example 117, ((1S,5S,6S)-3-amino-5-(5-((Z)-2-(5-chloropyridin-2-yl)-2-fluorovinyl)-2-fluorophenyl)-5-methyl-2-thia-4-azabicyclo[4.1.0]hept-3-en-1-yl)((S)-2-(methoxymethyl)pyrrolidin-1-yl)methanone], for which the figures for the 50% inhibitory concentration (IC50) on Cathepsin D (CatD) and at BACE2 were 166 µM and 0.0209 µM, respectively.

On to `C[C@]1(c2cc(/C=C(\F)c3ccc(C#N)cn3)ccc2F)N=C(N)S[C@@]2(C(=O)NC3CC3)C[C@H]21` [Example 121, (1S,5S,6S)-3-amino-5-(5-((Z)-2-(5-cyanopyridin-2-yl)-2-fluorovinyl)-2-fluorophenyl)-N-cyclopropyl-5-methyl-2-thia-4-azabicyclo[4.1.0]hept-3-ene-1-carboxamide], for which the 50% inhibitory concentration (IC50) on Cathepsin D (CatD) was found to be 52.9 µM; at BACE2 it was 0.164 µM.

With `C[C@]1(c2cc(/C=C(\F)c3ccc(C#N)cn3)ccc2F)N=C(N)S[C@@]2(C(=O)NC3CCOCC3)C[C@H]21` [Example 128, (1S,5S,6S)-3-amino-5-(5-((Z)-2-(5-cyanopyridin-2-yl)-2-fluorovinyl)-2-fluorophenyl)-5-methyl-N-(tetrahydro-2H-pyran-4-yl)-2-thia-4-azabicyclo[4.1.0]hept-3-ene-1-carboxamide], the IC50 was 144 µM on Cathepsin D (CatD) and 0.0892 µM at BACE2.

Regarding `C[C@]1(c2cc(/C=C(\F)c3ccc(C#N)cn3)ccc2F)N=C(N)S[C@@]2(C(=O)N3CCN(c4ccccc4)CC3)C[C@H]21` [Example 131, 6-((Z)-2-(3-((1S,5S,6S)-3-amino-5-methyl-1-(4-phenylpiperazine-1-carbonyl)-2-thia-4-azabicyclo[4.1.0]hept-3-en-5-yl)-4-fluorophenyl)-1-fluorovinyl)nicotinonitrile], the results for the concentration for half-maximal inhibition (IC50) on Cathepsin D (CatD) and on BACE2 were 96.9 µM and 0.015 µM, respectively.

In the case of `C[C@]1(c2cc(/C=C(\F)c3ccc(C#N)cn3)ccc2F)N=C(N)S[C@@]2(C(=O)N3CC4CC3CO4)C[C@H]21` (stereo partly drawn) [Example 132, 6-((Z)-2-(3-((1S,5S,6S)-3-amino-1-(2-oxa-5-azabicyclo[2.2.1]heptane-5-carbonyl)-5-methyl-2-thia-4-azabicyclo[4.1.0]hept-3-en-5-yl)-4-fluorophenyl)-1-fluorovinyl)nicotinonitrile], the IC50 at Cathepsin D (CatD) came out at 1690 µM; on BACE2, 0.0758 µM.

As to `C[C@@H]1CC[C@@H](C)N1C(=O)[C@]12C[C@H]1[C@@](C)(c1cc(/C=C(\F)c3ccc(C#N)cn3)ccc1F)N=C(N)S2` [Example 133, 6-((Z)-2-(3-((1S,5S,6S)-3-amino-1-((2R,5R)-2,5-dimethylpyrrolidine-1-carbonyl)-5-methyl-2-thia-4-azabicyclo[4.1.0]hept-3-en-5-yl)-4-fluorophenyl)-1-fluorovinyl)nicotinonitrile], the IC50 at Cathepsin D (CatD) amounted to 146 µM; on BACE2 it was 0.099 µM.

Take `CN(C)[C@@H]1CCN(C(=O)[C@]23C[C@H]2[C@@](C)(c2cc(/C=C(\F)c4ccc(C#N)cn4)ccc2F)N=C(N)S3)C1` [Example 134, 6-((Z)-2-(3-((1S,5S,6S)-3-amino-1-((R)-3-(dimethylamino)pyrrolidine-1-carbonyl)-5-methyl-2-thia-4-azabicyclo[4.1.0]hept-3-en-5-yl)-4-fluorophenyl)-1-fluorovinyl)nicotinonitrile]: the IC50 on Cathepsin D (CatD) turned out to be 400 µM; on BACE2, 0.8 µM.

Turning to `C[C@]1(c2cc(/C=C(\F)c3ccc(C#N)cn3)ccc2F)N=C(N)S[C@@]2(C(=O)N3CC[C@@H]4CCCC[C@H]4C3)C[C@H]21` [Example 135, 6-((Z)-2-(3-((1S,5S,6S)-3-amino-1-((4aS,8aR)-decahydroisoquinoline-2-carbonyl)-5-methyl-2-thia-4-azabicyclo[4.1.0]hept-3-en-5-yl)-4-fluorophenyl)-1-fluorovinyl)nicotinonitrile], the half-inhibitory concentration (IC50) on Cathepsin D (CatD) worked out at 5.5 µM; at BACE2, 0.00166 µM.

With `CC1CC(C)CN(C(=O)[C@]23C[C@H]2[C@@](C)(c2cc(/C=C(\F)c4ccc(C#N)cn4)ccc2F)N=C(N)S3)C1` (stereo partly drawn) [Example 137, 6-((Z)-2-(3-((1S,5S,6S)-3-amino-1-(3,5-dimethylpiperidine-1-carbonyl)-5-methyl-2-thia-4-azabicyclo[4.1.0]hept-3-en-5-yl)-4-fluorophenyl)-1-fluorovinyl)nicotinonitrile], the figures for the IC50 on Cathepsin D (CatD) and at BACE2 were 43.2 µM and 0.21 µM, respectively.

In the case of `CC1CCCN1C(=O)[C@]12C[C@H]1[C@@](C)(c1cc(/C=C(\F)c3ccc(C#N)cn3)ccc1F)N=C(N)S2` (stereo partly drawn) [Example 138, 6-((Z)-2-(3-((1S,5S,6S)-3-amino-5-methyl-1-(2-methylpyrrolidine-1-carbonyl)-2-thia-4-azabicyclo[4.1.0]hept-3-en-5-yl)-4-fluorophenyl)-1-fluorovinyl)nicotinonitrile], the IC50 at Cathepsin D (CatD) came to 70.9 µM; at BACE2, 0.0924 µM.

In the case of `C[C@]1(c2cc(/C=C(\F)c3ccc(C#N)cn3)ccc2F)N=C(N)S[C@@]2(C(=O)N3CCC(C(F)(F)F)CC3)C[C@H]21` [Example 139, 6-((Z)-2-(3-((1S,5S,6S)-3-amino-5-methyl-1-(4-(trifluoromethyl)piperidine-1-carbonyl)-2-thia-4-azabicyclo[4.1.0]hept-3-en-5-yl)-4-fluorophenyl)-1-fluorovinyl)nicotinonitrile], the IC50 is 81.5 µM on Cathepsin D (CatD) and 0.00257 µM on BACE2.

`C[C@]1(c2cc(/C=C(\F)c3ccc(C#N)cn3)ccc2F)N=C(N)S[C@@]2(C(=O)N3CCCC(c4ccccc4)C3)C[C@H]21` (stereo partly drawn) [Example 140, 6-((Z)-2-(3-((1S,5S,6S)-3-amino-5-methyl-1-(3-phenylpiperidine-1-carbonyl)-2-thia-4-azabicyclo[4.1.0]hept-3-en-5-yl)-4-fluorophenyl)-1-fluorovinyl)nicotinonitrile]: the results for the 50% inhibitory concentration (IC50) at Cathepsin D (CatD) and at BACE2 were 12.8 µM and 0.0131 µM, respectively.

For `C[C@]1(c2cc(/C=C(\F)c3ccc(C#N)cn3)ccc2F)N=C(N)S[C@@]2(C(=O)N3CCN(CC4CC4)CC3)C[C@H]21` [Example 141, 6-((Z)-2-(3-((1S,5S,6S)-3-amino-1-(4-(cyclopropylmethyl)piperazine-1-carbonyl)-5-methyl-2-thia-4-azabicyclo[4.1.0]hept-3-en-5-yl)-4-fluorophenyl)-1-fluorovinyl)nicotinonitrile], the 50% inhibitory concentration (IC50) at Cathepsin D (CatD) worked out at 400 µM; at BACE2, 0.336 µM.

With `C[C@]1(c2cc(/C=C(\F)c3ccc(C#N)cn3)ccc2F)N=C(N)S[C@@]2(C(=O)N3CCCC(C#N)C3)C[C@H]21` (stereo partly drawn) [Example 143, 6-((Z)-2-(3-((1S,5S,6S)-3-amino-1-(3-cyanopiperidine-1-carbonyl)-5-methyl-2-thia-4-azabicyclo[4.1.0]hept-3-en-5-yl)-4-fluorophenyl)-1-fluorovinyl)nicotinonitrile], the IC50 on Cathepsin D (CatD) amounted to 152 µM; at BACE2, 0.0127 µM.

In the case of `CNC(=O)[C@]12C[C@H]1[C@@](C)(c1cc(/C=C(\F)c3cnc(OCC(F)(F)C(F)F)cn3)ccc1F)N=C(N)S2` [Example 161, (1S,5S,6S)-3-amino-5-(2-fluoro-5-((Z)-2-fluoro-2-(5-(2,2,3,3-tetrafluoropropoxy)pyrazin-2-yl)vinyl)phenyl)-N,5-dimethyl-2-thia-4-azabicyclo[4.1.0]hept-3-ene-1-carboxamide], the IC50 on BACE2 turned out to be 0.755 µM.

For the compound `C#Cc1cnc(/C(F)=C/c2ccc(F)c([C@@]3(C)N=C(N)S[C@@]4(C(=O)NC)C[C@H]43)c2)cn1` [Example 167, (1S,5S,6S)-3-amino-5-(5-((Z)-2-(5-ethynylpyrazin-2-yl)-2-fluorovinyl)-2-fluorophenyl)-N,5-dimethyl-2-thia-4-azabicyclo[4.1.0]hept-3-ene-1-carboxamide], the concentration for half-maximal inhibition (IC50) on BACE2 is 0.16 µM.
